Source: PMC2644263 (Molecular cell, 2008)

Target: Bub1 (Homo sapiens, UniProt O43683)
Test: in vitro […] kinase assay with purified kinase, […] ATP, phosphoimager
Assay type: biochemical

Bub1, sequence (O43683 724-1085): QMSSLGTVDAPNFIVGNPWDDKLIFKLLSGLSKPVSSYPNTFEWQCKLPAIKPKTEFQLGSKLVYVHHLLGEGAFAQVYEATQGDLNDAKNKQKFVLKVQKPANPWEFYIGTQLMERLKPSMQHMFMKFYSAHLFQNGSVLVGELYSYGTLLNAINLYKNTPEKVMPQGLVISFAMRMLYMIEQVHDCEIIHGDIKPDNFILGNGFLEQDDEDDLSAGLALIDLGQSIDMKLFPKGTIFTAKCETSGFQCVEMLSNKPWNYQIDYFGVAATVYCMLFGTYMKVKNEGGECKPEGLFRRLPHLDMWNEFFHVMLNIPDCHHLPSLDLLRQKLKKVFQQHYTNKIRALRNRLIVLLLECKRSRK

IC50: ~250 nM
SMILES: CC(C)(C)n1nc(Cc2ccccc2O)c2c(N)ncnc21 [2OH-BNPP1]
